Assay results published in ChEMBL document CHEMBL1149474, “Synthesis and receptor binding properties of chimeric peptides containing a mu-opioid receptor ligand and nociceptin/orphanin FQ receptor ligand Ac-RYYRIK-amide” (Bioorg Med Chem Lett, 2006).
Non-standard residues stand in square brackets, D forms with d. Residues, ends and D or L forms follow the SMILES beside them. βAla = NCCC(=O)O

How the values were obtained:
[1] = target: Nociceptin receptor (Homo sapiens, UniProt P41146); experiment: Displacement of [3H]NOC from human ORL1 receptor expressed in HEK293 cells; format: cell-based
Sequence of Nociceptin receptor (P41146 whole entry): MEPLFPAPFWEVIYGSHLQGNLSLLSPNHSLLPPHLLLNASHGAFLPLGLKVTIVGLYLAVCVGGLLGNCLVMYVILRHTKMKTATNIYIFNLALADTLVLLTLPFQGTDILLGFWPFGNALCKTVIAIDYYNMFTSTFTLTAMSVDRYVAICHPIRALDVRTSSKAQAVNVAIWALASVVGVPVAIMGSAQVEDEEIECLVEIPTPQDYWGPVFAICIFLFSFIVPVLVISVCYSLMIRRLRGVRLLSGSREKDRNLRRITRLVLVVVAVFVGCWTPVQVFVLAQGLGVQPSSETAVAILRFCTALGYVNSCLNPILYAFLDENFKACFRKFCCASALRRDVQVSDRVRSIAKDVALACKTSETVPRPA

[2] = target: Mu-type opioid receptor (Rattus norvegicus, UniProt P33535); experiment: Displacement of [3H]DAMGO from mu opioid receptor in rat brain homogenate; format: tissue-based
Sequence of Mu-type opioid receptor (P33535 whole entry): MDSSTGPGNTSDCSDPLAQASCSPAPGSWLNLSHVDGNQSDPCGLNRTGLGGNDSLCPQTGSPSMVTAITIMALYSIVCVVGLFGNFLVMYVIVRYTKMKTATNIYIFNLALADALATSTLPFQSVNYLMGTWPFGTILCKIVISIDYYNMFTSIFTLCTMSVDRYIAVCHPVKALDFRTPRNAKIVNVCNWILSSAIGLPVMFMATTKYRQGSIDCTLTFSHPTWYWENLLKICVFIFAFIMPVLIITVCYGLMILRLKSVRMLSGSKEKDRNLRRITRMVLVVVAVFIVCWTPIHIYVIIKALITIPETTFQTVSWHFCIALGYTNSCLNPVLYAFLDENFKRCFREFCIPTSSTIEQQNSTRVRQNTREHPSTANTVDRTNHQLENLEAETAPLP

| Structure (SMILES) | IC50 [1] [nM] | IC50 [2] [nM] |
| --- | --- | --- |
| CC[C@H](C)[C@H](NC(=O)[C@H](CCCN=C(N)N)NC(=O)[C@H](Cc1ccc(O)cc1)NC(=O)[C@H](Cc1ccc(O)cc1)NC(=O)[C@H](CCCN=C(N)N)NC(C)=O)C(=O)N[C@@H](CCCCN)C(=O)N[C@@H](CCCCNC(=O)[C@H](CO)NC(=O)[C@@H]1CCCN1C(=O)[C@H](Cc1ccc(O)cc1)NC(=O)CNC(=O)[C@H](Cc1ccccc1)NC(=O)[C@@H](C)NC(=O)[C@@H](N)Cc1ccc(O)cc1)C(N)=O | 11.6 |  |
| CC[C@H](C)[C@H](NC(=O)[C@H](CCCN=C(N)N)NC(=O)[C@H](Cc1ccc(O)cc1)NC(=O)[C@H](Cc1ccc(O)cc1)NC(=O)[C@H](CCCN=C(N)N)NC(C)=O)C(=O)N[C@@H](CCCCN)C(=O)N[C@@H](CCCCNC(=O)CCNC(=O)[C@H](Cc1ccccc1)NC(=O)[C@@H](CCCN=C(N)N)NC(=O)[C@@H](N)Cc1ccc(O)cc1)C(N)=O | 0.789 | 2.76 |
| CC[C@H](C)[C@H](NC(=O)[C@H](CCCN=C(N)N)NC(=O)[C@H](Cc1ccc(O)cc1)NC(=O)[C@H](Cc1ccc(O)cc1)NC(=O)[C@H](CCCN=C(N)N)NC(C)=O)C(=O)N[C@@H](CCCCN)C(=O)NCC(=O)NCC(=O)NCC(=O)N[C@@H](CCCCNC(=O)CNC(=O)CNC(=O)[C@H](CO)NC(=O)[C@@H]1CCCN1C(=O)[C@H](Cc1ccc(O)cc1)NC(=O)CNC(=O)[C@H](Cc1ccccc1)NC(=O)[C@@H](C)NC(=O)[C@@H](N)Cc1ccc(O)cc1)C(N)=O | 0.0464 | 0.00236 |
| CC[C@H](C)[C@H](NC(=O)[C@H](CCCN=C(N)N)NC(=O)[C@H](Cc1ccc(O)cc1)NC(=O)[C@H](Cc1ccc(O)cc1)NC(=O)[C@H](CCCN=C(N)N)NC(C)=O)C(=O)N[C@@H](CCCCN)C(N)=O |  | > 10000 |
| CC[C@H](C)[C@H](NC(=O)[C@H](CCCN=C(N)N)NC(=O)[C@H](Cc1ccc(O)cc1)NC(=O)[C@H](Cc1ccc(O)cc1)NC(=O)[C@H](CCCN=C(N)N)NC(C)=O)C(=O)N[C@@H](CCCCN)C(=O)NCC(=O)NCC(=O)NCC(=O)N[C@@H](CCCCNC(=O)CNC(=O)CNC(=O)CNC(=O)CNC(=O)CNC(=O)CCNC(=O)[C@H](Cc1ccccc1)NC(=O)[C@@H](CCCN=C(N)N)NC(=O)[C@@H](N)Cc1ccc(O)cc1)C(N)=O | 0.0803 | 0.0477 |
| N=C(N)NCCC[C@@H](NC(=O)[C@@H](N)Cc1ccc(O)cc1)C(=O)N[C@@H](Cc1ccccc1)C(=O)NCCC(N)=O (H-Y[dR]F[βAla]-NH2) | > 10000 | 1.18 |
| C[C@@H](NC(=O)[C@@H](N)Cc1ccc(O)cc1)C(=O)N[C@@H](Cc1ccccc1)C(=O)NCC(=O)N[C@@H](Cc1ccc(O)cc1)C(=O)N1CCC[C@H]1C(=O)N[C@@H](CO)C(N)=O [DERMORPHIN] | > 10000 | 0.538 |
